Laboratory results from Sander's compilation of Henry's law constants.
Where “and” joins values, the source holds several entries; their conditions need not be identical. Equal entries are not always repeated. Each block holds one molecule with its values, some of them ahead of it.

Test: Henry solubility constant Hcp at 298.15 K (mol/(m3 Pa))
[1] = reference: Ondo and Dohnal (2007)
[2] = reference: Wieland et al. (2015)
[3] = reference: Murphy et al. (1983a)
[4] = reference: Fenclová et al. (2014)

SMILES: CC(=O)OCC(F)(F)F [2,2,2-trifluoroethyl ethanoate]
Henry solubility constant Hcp (reference: Kutsuna et al. (2004)): 0.0057

SMILES: Cc1cccc(C=O)c1 [3-methylbenzaldehyde]
Henry solubility constant Hcp (reference: Wu et al. (2022b)): 0.3

Henry solubility constant Hcp (reference: Drouillard et al. (1998)): 0.2 and 0.38
SMILES: CC(Cl)CCC(Cl)C(Cl)CCC(Cl)CCl (stereo not drawn) [pentachlorodecane isomers]

Henry solubility constant Hcp (reference: Pollien et al. (2003)): 0.023
SMILES: CCC(C)C=O (configuration not stated) [2-methylbutanal]

SMILES: FC(F)=CCl [2-chloro-1,1-difluoroethene]
Henry solubility constant Hcp (reference: Maaßen (1995)): 0.00017
Henry solubility constant Hcp (reference: Reichl (1995)): 0.00017

SMILES: CN=C=O [methyl isocyanate]
Henry solubility constant Hcp (reference: Roberts and Liu (2019)): 0.013

Henry solubility constant Hcp (reference: Haimi et al. (2006)): 0.0041
SMILES: c1ccsc1 [thiophene]

Henry solubility constant Hcp (reference: Copolovici and Niinemets (2005)): 0.00018
SMILES: CC1=CCC(C(C)C)C=C1 (stereo not drawn) [α-phellandrene]

SMILES: ClC1C(Cl)C(Cl)C(Cl)C(Cl)C1Cl (stereo not drawn) [α-1,2,3,4,5,6-hexachlorocyclohexane]
Henry solubility constant Hcp (reference: Kucklick et al. (1991)): 1.3
Henry solubility constant Hcp (reference: Sahsuvar et al. (2003)): 1.7

SMILES: OCC(F)(F)F [2,2,2-trifluoroethanol]
Henry solubility constant Hcp (reference: Chen et al. (2003)): 0.47
Henry solubility constant Hcp (reference: Rochester and Symonds (1973)): 0.58

Henry solubility constant Hcp [1]: 0.43
SMILES: C1COCO1 [1,3-dioxolane]

Henry solubility constant Hcp (reference: Nguyen (2013)): 1400
SMILES: CC(N)CN (configuration not stated) [1,2-diaminopropane]

SMILES: ClC(Cl)=C(c1ccc(Cl)cc1)c1ccc(Cl)cc1 [1,1-dichloro-2,2-bis-(4-chlorophenyl)-ethene]
Henry solubility constant Hcp (reference: Jantunen and Bidleman (2006)): 0.029

SMILES: ClC1(Cl)C2(Cl)C3(Cl)C4(Cl)C(Cl)(Cl)C5(Cl)C3(Cl)C1(Cl)C5(Cl)C24Cl (configuration not stated) [mirex]
Henry solubility constant Hcp (reference: Yin and Hassett (1986)): 0.012

SMILES: CCO [ethanol]
Henry solubility constant Hcp (reference: Burnett (1963)): 2.1
Henry solubility constant Hcp (reference: Butler et al. (1935)): 1.9
Henry solubility constant Hcp (reference: Gupta et al. (2000)): 1.8
Henry solubility constant Hcp (reference: Harger et al. (1950)): 1.9
Henry solubility constant Hcp (reference: Jones (1983)): 1.9
Henry solubility constant Hcp (reference: Park et al. (1987)): 1.9
Henry solubility constant Hcp (reference: Pividal et al. (1992)): 3.1
Henry solubility constant Hcp (reference: Richon et al. (1985)): 2
Henry solubility constant Hcp (reference: Rohrschneider (1973)): 2.3
Henry solubility constant Hcp (reference: Snider and Dawson (1985)): 1.9
Henry solubility constant Hcp (reference: Straver and de Loos (2005)): 1.9
Henry solubility constant Hcp (reference: Ueberfeld et al. (2001)): 1.1
Henry solubility constant Hcp (reference: Vitenberg and Dobryakov (2008)): 1.8
Henry solubility constant Hcp (reference: Willey et al. (2017)): 1.8

SMILES: O=C(O)C(F)(F)C(F)(F)C(F)(F)C(F)(F)C(F)(F)C(F)(F)F [perfluoroheptanoic acid]
Henry solubility constant Hcp (reference: Kwan (2001)): 1.7

SMILES: O=COCC(F)(F)F [2,2,2-trifluoroethyl methanoate]
Henry solubility constant Hcp (reference: Kutsuna et al. (2005)): 0.0054

Henry solubility constant Hcp [2]: 0.0015
SMILES: Cc1ccco1 [2-methylfuran]

Henry solubility constant Hcp [3]: 0.066
Henry solubility constant Hcp (reference: Westcott et al. (1981)): 0.025
SMILES: Clc1ccc(-c2ccccc2Cl)cc1Cl [2,3',4'-trichlorobiphenyl]

SMILES: CC(C)(C)CC(C)(C)c1ccc(O)cc1 [4-(1,1,3,3-tetramethylbutyl)-phenol]
Henry solubility constant Hcp (reference: Xie et al. (2004)): 2.3

Henry solubility constant Hcp [1]: 0.063
SMILES: COCOC [dimethoxymethane]

Henry solubility constant Hcp (reference: Wu et al. (2022a)): 0.15
SMILES: CCCCC(CC)CO (configuration not stated) [2-ethyl-1-hexanol]

SMILES: FN(F)N(F)F [dinitrogen tetrafluoride]
Henry solubility constant Hcp (reference: Dean et al. (1973)): 8.4e-06

SMILES: [O][Cl+][O-] [chlorine dioxide]
Henry solubility constant Hcp (reference: Bigorgne (1947)): 0.0066
Henry solubility constant Hcp (reference: Holst (1944)): 0.0097
Henry solubility constant Hcp (reference: Ishi (1958)): 0.011
Henry solubility constant Hcp (reference: Kepinski and Trzeszczynski (1964)): 0.01
Henry solubility constant Hcp (reference: Taube and Dodgen (1949)): 0.01

Henry solubility constant Hcp (reference: Reichl (1995)): 1.4e-05
SMILES: FC(C(F)(F)F)C(F)(F)F [1,1,1,2,3,3,3-heptafluoropropane]

SMILES: BrC(Br)C(Br)Br [1,1,2,2-tetrabromoethane]
Henry solubility constant Hcp (reference: Khalfaoui and Newsham (1994a)): 0.01

Henry solubility constant Hcp [4]: 0.041
SMILES: CCOC(=O)CC [ethyl propanoate]

SMILES: N#Cc1c(Cl)cccc1Cl [2,6-dichlorobenzenenitrile]
Henry solubility constant Hcp (reference: Schoene and Steinhanses (1985)): 0.48

Henry solubility constant Hcp [2]: 2.9
SMILES: CCc1ncc(C)nc1C [2-ethyl-3,5-dimethylpyrazine]

SMILES: COC(C)=O [methyl ethanoate]
Henry solubility constant Hcp (reference: Arp and Schmidt (2004)): 0.066
Henry solubility constant Hcp (reference: Butler and Ramchandani (1935)): 0.11
Henry solubility constant Hcp [4]: 0.081
Henry solubility constant Hcp (reference: Ioffe et al. (1984)): 0.077
Henry solubility constant Hcp (reference: Kieckbusch and King (1979b)): 0.077
Henry solubility constant Hcp (reference: McKeown and Stowell (1927)): 0.087

Henry solubility constant Hcp [3]: 0.016
SMILES: Clc1cc(Cl)c(-c2c(Cl)cc(Cl)c(Cl)c2Cl)cc1Cl [2,2',3,4,4',5',6-heptachlorobiphenyl]
